{"source": "patent US20060111346A1", "about": "“Methods of modulating high-density lipoprotein cholesterol levels and pharmaceutical formulations for the same” (Fazix Corporation., priority 2004, published 2006)", "key": {"CETP": {"molecular_target": "T1, CETP (Oryctolagus cuniculus, UniProt P22687)", "T1 construct": "purchased Biovision Research Products K602-100", "T1 sequence (P22687 2-497)": "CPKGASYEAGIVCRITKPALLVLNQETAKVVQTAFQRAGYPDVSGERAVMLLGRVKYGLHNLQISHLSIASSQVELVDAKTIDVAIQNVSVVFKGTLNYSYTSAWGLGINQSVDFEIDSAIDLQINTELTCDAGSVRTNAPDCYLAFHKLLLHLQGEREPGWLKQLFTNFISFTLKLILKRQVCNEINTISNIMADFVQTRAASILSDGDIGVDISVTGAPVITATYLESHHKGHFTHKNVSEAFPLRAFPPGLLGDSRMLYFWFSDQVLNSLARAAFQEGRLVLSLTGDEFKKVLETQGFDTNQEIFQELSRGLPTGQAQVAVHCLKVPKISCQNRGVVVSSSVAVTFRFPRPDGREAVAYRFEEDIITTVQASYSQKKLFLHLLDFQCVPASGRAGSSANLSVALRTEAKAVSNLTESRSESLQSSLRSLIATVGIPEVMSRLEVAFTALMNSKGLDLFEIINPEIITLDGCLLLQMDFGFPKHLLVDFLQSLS", "assay": "CETP Inhibitor Drug Screening Kit (Biovision K602-100), cholesterol transfer activity", "type": "biochemical", "details": "100 μM", "protocol": "The inhibitory activity of FZX-CETP-001 was determined in vitro using a commercially available CETP Inhibitor Drug Screening Kit (catalog # K602-100). The kit is available from Biovision Research Products, located in Mountain View, Calif. USA. Information regarding the kit is available at the following url addresses: http://www.biovisionlabs.com/cetp-pltp.html; and http://www.biovision.com/pdf/K602-100.pdf\nFollowing the directions provided with the kit, FZX-CETP-001 was assayed for inhibitory activity."}, "Apo*E3Leiden.hCETP mice": {"system": "Apo*E3Leiden.hCETP mice", "details": "for HDL cholesterol relative to control group / HDL phospholipids relative to control group / LDL cholesterol relative to control group / LDL phospholipids relative to control group: pooled blood"}, "[1]": {"details": "oral gavage 0.1 mg/kg/day, 1 week"}, "[2]": {"details": "oral gavage 0.3 mg/kg/day, 1 week"}, "[3]": {"details": "oral gavage 1.0 mg/kg/day, 1 week"}, "[4]": {"details": "serum cholesterol profiles, FIGS. 2A-2D, increasing dose"}, "[5]": {"details": "serum phospholipid profiles, increasing dose"}, "[6]": {"details": "subcutaneous depot injection 0.3 mg/kg, 24 hours after injection"}, "[7]": {"details": "subcutaneous depot injection 1.0 mg/kg, 24 hours after injection"}, "[8]": {"details": "subcutaneous depot injection 3.0 mg/kg, 24 hours after injection"}}, "note": "Like-named read-outs stand apart in the source and are kept apart here."}
{"smiles": "CC(C)(Oc1ccc(Cl)cc1)C(=O)OCCN1CCN(CCCN2c3ccccc3Sc3ccc(C(F)(F)F)cc32)CC1", "note": "[FZX-CETP-0001, Fluphenazine 4-chlorophenoxyisobutyric acid ester]", "values": [{"measurement": "inhibition of CETP", "setting": "CETP", "result": 100, "unit": "%"}, {"measurement": "Cholesterol Transfer Activity, Fluorescence Units", "setting": "CETP; Average, N = 2", "result": 8312, "unit": "Fluorescence Units"}, {"measurement": "HDL-C to LDL-C ratio", "setting": "Apo*E3Leiden.hCETP mice; lowest tested dosage of 0.1 mg/kg/day by gavage, treated vs untreated control", "result": "marked increase"}, {"measurement": "control parameters (food intake levels, body weights, cholesterol levels, triglyceride levels)", "setting": "Apo*E3Leiden.hCETP mice; mouse, in vivo", "result": "no statistically significant difference"}, {"measurement": "HDL cholesterol relative to control group", "setting": "Apo*E3Leiden.hCETP mice; [1]", "result": 204, "unit": "%"}, {"measurement": "HDL phospholipids relative to control group", "setting": "Apo*E3Leiden.hCETP mice; [1]", "result": 128, "unit": "%"}, {"measurement": "LDL cholesterol relative to control group", "setting": "Apo*E3Leiden.hCETP mice; [1]", "result": 81, "unit": "%"}, {"measurement": "LDL phospholipids relative to control group", "setting": "Apo*E3Leiden.hCETP mice; [1]", "result": 81, "unit": "%"}, {"measurement": "HDL cholesterol relative to control group", "setting": "Apo*E3Leiden.hCETP mice; [2]", "result": 121, "unit": "%"}, {"measurement": "HDL phospholipids relative to control group", "setting": "Apo*E3Leiden.hCETP mice; [2]", "result": 136, "unit": "%"}, {"measurement": "LDL cholesterol relative to control group", "setting": "Apo*E3Leiden.hCETP mice; [2]", "result": 94, "unit": "%"}, {"measurement": "LDL phospholipids relative to control group", "setting": "Apo*E3Leiden.hCETP mice; [2]", "result": 92, "unit": "%"}, {"measurement": "HDL cholesterol relative to control group", "setting": "Apo*E3Leiden.hCETP mice; [3]", "result": 269, "unit": "%"}, {"measurement": "HDL phospholipids relative to control group", "setting": "Apo*E3Leiden.hCETP mice; [3]", "result": 129, "unit": "%"}, {"measurement": "LDL cholesterol relative to control group", "setting": "Apo*E3Leiden.hCETP mice; [3]", "result": 80, "unit": "%"}, {"measurement": "LDL phospholipids relative to control group", "setting": "Apo*E3Leiden.hCETP mice; [3]", "result": 96, "unit": "%"}, {"measurement": "ratio of HDL-C level in the treated to untreated mice", "setting": "Apo*E3Leiden.hCETP mice; [4]", "result": "increases"}, {"measurement": "ratio of LDL-C level (total area under the curve) in treated to untreated mice", "setting": "Apo*E3Leiden.hCETP mice; [4]", "result": "decreases with increasing dose"}, {"measurement": "ratio of HDL-C level in the treated to untreated mice", "setting": "Apo*E3Leiden.hCETP mice; [5]", "result": "increases"}, {"measurement": "ratio of LDL-C phospholipid level (total area under the curve) in treated to untreated mice", "setting": "Apo*E3Leiden.hCETP mice; [5]", "result": "decreases with increasing dose"}, {"measurement": "HDL cholesterol relative to control group", "setting": "Apo*E3Leiden.hCETP mice; [6]", "result": 286, "unit": "%"}, {"measurement": "HDL phospholipids relative to control group", "setting": "Apo*E3Leiden.hCETP mice; [6]", "result": 141, "unit": "%"}, {"measurement": "LDL cholesterol relative to control group", "setting": "Apo*E3Leiden.hCETP mice; [6]", "result": 100, "unit": "%"}, {"measurement": "LDL phospholipids relative to control group", "setting": "Apo*E3Leiden.hCETP mice; [6]", "result": 71, "unit": "%"}, {"measurement": "HDL cholesterol relative to control group", "setting": "Apo*E3Leiden.hCETP mice; [7]", "result": 277, "unit": "%"}, {"measurement": "HDL phospholipids relative to control group", "setting": "Apo*E3Leiden.hCETP mice; [7]", "result": 173, "unit": "%"}, {"measurement": "LDL cholesterol relative to control group", "setting": "Apo*E3Leiden.hCETP mice; [7]", "result": 78, "unit": "%"}, {"measurement": "LDL phospholipids relative to control group", "setting": "Apo*E3Leiden.hCETP mice; [7]", "result": 56, "unit": "%"}, {"measurement": "HDL cholesterol relative to control group", "setting": "Apo*E3Leiden.hCETP mice; [8]", "result": 1119, "unit": "%"}, {"measurement": "HDL phospholipids relative to control group", "setting": "Apo*E3Leiden.hCETP mice; [8]", "result": 169, "unit": "%"}, {"measurement": "LDL cholesterol relative to control group", "setting": "Apo*E3Leiden.hCETP mice; [8]", "result": 55, "unit": "%"}, {"measurement": "LDL phospholipids relative to control group", "setting": "Apo*E3Leiden.hCETP mice; [8]", "result": 70, "unit": "%"}, {"measurement": "triglyceride level", "setting": "Apo*E3Leiden.hCETP mice; subcutaneous injections at doses at or above 1 mg/kg", "result": "slightly reduced"}]}
